From PubChem BioAssay AID1918946 (Molecular Pharmacology Branch, DTP, NCI, 2023)
“And” between values parts separate entries of the source, which are not always exact repeats. Equal values may be shown once. Each block holds one compound with its values, some of them ahead of it.

Test system: 885512-296-R-J2-PDC complex spheroid viability
Experiment: Anticancer human tumor 885512-296-R-J2-PDC patient-derived breast carcinoma cell line growth inhibition
Conditions: for viability, T/C: stronger effect = lower value
Method in brief: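 Complex spheroids of tumor cells with HUVEC and human MSCs, exposed to iadademstat combined with other agents. Each agent tested in half-log steps from near clinical Cmax (else 10 microM top), DMSO ≤0.25%.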

[1] = curve of first compound, second compound 0.1 µM
[2] = curve of first compound, second compound 0.316 µM
[3] = curve of first compound, second compound 1 µM
[4] = curve of first compound, second compound 3.16 µM
[5] = curve of first compound, second compound 10 µM
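Also: spheroids exposed to agents for 7 days before viability read.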

Structure (SMILES): O=C(C=Cc1cccc(S(=O)(=O)Nc2ccccc2)c1)NO + NC1CC1c1ccc(-c2cccc(O)c2)cc1
IC50 [1]: > 3 µM
IC50 [2]: 0.0419 µM
IC50 [3]: 0.0715 µM
IC50 [4]: 0.0391 µM
IC50 [5]: 0.0195 µM
viability, T/C (second compound 0.1 µM, first compound 0.00949 µM): 104%
viability, T/C (second compound 0.1 µM, first compound 0.03 µM): 66.5%
viability, T/C (second compound 0.1 µM, first compound 0.0949 µM): 26.4%
viability, T/C (second compound 0.1 µM, first compound 0.3 µM): 15.9%
viability, T/C (second compound 0.1 µM, first compound 0.949 µM): 2.01%
viability, T/C (second compound 0.1 µM, first compound 3 µM): 136%
viability, T/C (second compound 0.316 µM, first compound 0.00949 µM): 106%
viability, T/C (second compound 0.316 µM, first compound 0.03 µM): 61.2%
viability, T/C (second compound 0.316 µM, first compound 0.0949 µM): 23.3%
viability, T/C (second compound 0.316 µM, first compound 0.3 µM): 12%
viability, T/C (second compound 0.316 µM, first compound 0.949 µM): 2.58%
viability, T/C (second compound 0.316 µM, first compound 3 µM): 116%
viability, T/C (second compound 1 µM, first compound 0.00949 µM): 96.3%
viability, T/C (second compound 1 µM, first compound 0.03 µM): 73.6%
viability, T/C (second compound 1 µM, first compound 0.0949 µM): 26.6%
viability, T/C (second compound 1 µM, first compound 0.3 µM): 13.9%
viability, T/C (second compound 1 µM, first compound 0.949 µM): 1.94%
viability, T/C (second compound 1 µM, first compound 3 µM): 127%
viability, T/C (second compound 3.16 µM, first compound 0.00949 µM): 92.1%
viability, T/C (second compound 3.16 µM, first compound 0.03 µM): 53.6%
viability, T/C (second compound 3.16 µM, first compound 0.0949 µM): 26.4%
viability, T/C (second compound 3.16 µM, first compound 0.3 µM): 14.4%
viability, T/C (second compound 3.16 µM, first compound 0.949 µM): 1.95%
viability, T/C (second compound 3.16 µM, first compound 3 µM): 109%
viability, T/C (second compound 10 µM, first compound 0.00949 µM): 62.8%
viability, T/C (second compound 10 µM, first compound 0.03 µM): 42.4%
viability, T/C (second compound 10 µM, first compound 0.0949 µM): 16.9%
viability, T/C (second compound 10 µM, first compound 0.3 µM): 8.77%
viability, T/C (second compound 10 µM, first compound 0.949 µM): 0.61%
viability, T/C (second compound 10 µM, first compound 3 µM): 82.6%

Structure (SMILES): CC1COCCN1c1cc(C2(S(C)(=N)=O)CC2)nc(-c2ccnc3[nH]ccc23)n1 (stereo unspecified) + NC1CC1c1ccc(-c2cccc(O)c2)cc1
IC50 [1]: 0.501 µM
IC50 [2]: 0.466 µM
IC50 [3]: 0.338 µM
IC50 [4]: 0.412 µM
IC50 [5]: 0.216 µM
viability, T/C (second compound 0.1 µM, first compound 0.0316 µM): 110%
viability, T/C (second compound 0.1 µM, first compound 0.1 µM): 116%
viability, T/C (second compound 0.1 µM, first compound 0.316 µM): 76.1%
viability, T/C (second compound 0.1 µM, first compound 1 µM): 11.1%
viability, T/C (second compound 0.1 µM, first compound 3.16 µM): 3.64%
viability, T/C (second compound 0.1 µM, first compound 10 µM): 2.7%
viability, T/C (second compound 0.316 µM, first compound 0.0316 µM): 139%
viability, T/C (second compound 0.316 µM, first compound 0.1 µM): 112%
viability, T/C (second compound 0.316 µM, first compound 0.316 µM): 72.3%
viability, T/C (second compound 0.316 µM, first compound 1 µM): 10.7%
viability, T/C (second compound 0.316 µM, first compound 3.16 µM): 3.33%
viability, T/C (second compound 0.316 µM, first compound 10 µM): 2.63%
viability, T/C (second compound 1 µM, first compound 0.0316 µM): 118%
viability, T/C (second compound 1 µM, first compound 0.1 µM): 113%
viability, T/C (second compound 1 µM, first compound 0.316 µM): 52.3%
viability, T/C (second compound 1 µM, first compound 1 µM): 8.24%
viability, T/C (second compound 1 µM, first compound 3.16 µM): 3.25%
viability, T/C (second compound 1 µM, first compound 10 µM): 2.72%
viability, T/C (second compound 3.16 µM, first compound 0.0316 µM): 114%
viability, T/C (second compound 3.16 µM, first compound 0.1 µM): 101%
viability, T/C (second compound 3.16 µM, first compound 0.316 µM): 63.1%
viability, T/C (second compound 3.16 µM, first compound 1 µM): 9.16%
viability, T/C (second compound 3.16 µM, first compound 3.16 µM): 3.38%
viability, T/C (second compound 3.16 µM, first compound 10 µM): 2.43%
viability, T/C (second compound 10 µM, first compound 0.0316 µM): 79.9%
viability, T/C (second compound 10 µM, first compound 0.1 µM): 76.5%
viability, T/C (second compound 10 µM, first compound 0.316 µM): 37%
viability, T/C (second compound 10 µM, first compound 1 µM): 8.1%
viability, T/C (second compound 10 µM, first compound 3.16 µM): 3.13%
viability, T/C (second compound 10 µM, first compound 10 µM): 2.67%

The next lines start with results.

IC50 (curve of compound): 0.0159 µM and 0.0384 µM
Structure (SMILES): Cn1ncnc1C1c2n[nH]c(=O)c3cc(F)cc(c23)NC1c1ccc(F)cc1 (stereo unspecified)
viability, T/C (compound 0.000316 µM): 113% and 78.9%
viability, T/C (compound 0.001 µM): 96.4% and 90.1%
viability, T/C (compound 0.00316 µM): 81.5% and 89.5%
viability, T/C (compound 0.01 µM): 58.5% and 70.7%
viability, T/C (compound 0.0316 µM): 36.5% and 55.6%
viability, T/C (compound 0.1 µM): 15.5% and 29.8%

IC50 (curve of compound): 0.00645 µM and 0.00456 µM
Structure (SMILES): CC(C)CC(NC(=O)CNC(=O)c1cc(Cl)ccc1Cl)B1OC(=O)CC(CC(=O)O)(C(=O)O)O1 (stereo unspecified)
viability, T/C (compound 0.000316 µM): 102% and 89.6%
viability, T/C (compound 0.001 µM): 84.1% and 89.2%
viability, T/C (compound 0.00316 µM): 96.3% and 68.9%
viability, T/C (compound 0.01 µM): 22.7% and 9.34%
viability, T/C (compound 0.0316 µM): 8.52% and 2.1%
viability, T/C (compound 0.1 µM): 4.36% and 0.41%

IC50 (curve of compound): 0.0457 µM and 0.026 µM
Structure (SMILES): O=C(C=Cc1cccc(S(=O)(=O)Nc2ccccc2)c1)NO
viability, T/C (compound 0.00949 µM): 70% and 91.1%
viability, T/C (compound 0.03 µM): 60.1% and 44%
viability, T/C (compound 0.0949 µM): 32.8% and 28.1%
viability, T/C (compound 0.3 µM): 20.3% and 16.4%
viability, T/C (compound 0.949 µM): 13.7% and 2.92%
viability, T/C (compound 3 µM): 13.9% and 72.2%
